Measurements as given in patent publication US8252899B2, “Methods and compositions for obtaining high-resolution crystals of membrane proteins” (The Scripps Research Institute, priority 2007, dated 2012).

Tests used:
[1] = molecular target: β2AR Val114^3.33 to alanine mutant (Homo sapiens, UniProt P07550, V114A); details: Chelikani et al. 2007; cited from earlier work
β2AR-T4L [2] = details: for λmax ± SD for β2AR-T4L: bimane emission, excitation 350 nm, saturating ligand; for λmax ± SD for β2AR-T4L / Intensity at λmax Ligand/Intensity at λmax none, β2AR-T4L: 15 min incubation; for Intensity at λmax Ligand/Intensity at λmax none, β2AR-T4L: bimane fluorescence, ratio to no-ligand control
wild-type β2AR = wild-type β2AR (Homo sapiens, UniProt P07550); test: Saturation binding of [3H]DHA to membranes from Sf9 cells expressing wild-type β2AR
β2AR-T4L [3] = test: Saturation binding of [3H]DHA to membranes from Sf9 cells expressing β2AR-T4L; parameters: species or system human
Experimental: FIG. 15. Affinity curves for adrenergic ligands binding to β2AR-T4L and wildtype β2AR. […] Binding experiments on membranes isolated from Sf9 insect cells expressing the receptors were performed as described above.
Membrane preparation from baculovirus-infected Sf9 cells was performed as described previously (Swaminath, et al., Mol Pharmacol 61, 65 (2002)). For each binding reaction, membranes containing 0.7 μg total membrane protein were used. Saturation binding of [^3H]-dihydroalprenolol (DHA) was measured by incubating membranes resuspended in 500 μl binding buffer (75 mM Tris, 12.5 mM MgCl2, 1 mM EDTA, pH 7.4, supplemented with 0.4 mg/ml BSA) with 12 different concentrations of [^3H]DHA (Perkin Elmer) between 20 pM and 10 nM. After 1 h incubation with shaking at 230 rpm, membranes were filtered from the binding reactions with a Brandel harvester, washed with binding buffer, and measured for bound [^3H]DHA with a Beckman LS6000 scintillation counter. […] For competition binding, membranes resuspended in 500 μl binding buffer were incubated with 0.5 nM [^3H]DHA plus increasing concentrations of the competing ligand (all compounds were purchased from Sigma). […] Each data point in the curves in FIGS. 2A and S1 represents the mean of three separate experiments, each done in triplicate. Binding data were analyzed by nonlinear regression analysis using Graphpad Prism.

Row | Structure (SMILES) | ligand-induced change of bimane fluorescence (in words), β2AR-T4L (β2AR-T4L [2]) | λmax ± SD for β2AR-T4L (β2AR-T4L [2]) [nm] | Intensity at λmax Ligand/Intensity at λmax none, β2AR-T4L (β2AR-T4L [2]) | further results
1 | CNC[C@H](O)c1ccc(O)c(O)c1 [(−)-epinephrine] |  |  |  | lowering of affinity by Val114 to alanine mutation [1]: 300 fold
2 | CC(C)NC[C@H](O)c1ccc(O)c(O)c1 [(−)-isoproteronol, (−)-isoproterenol] | qualitatively similar decrease in intensity and rightward shift in λmax | 455 ± 2 | 0.824 ± 0.006 | 
3 | CCCc1ccccc1OCC(O)CNC(C)C (centres unmarked) [[^3H]DHA, [^3H]-dihydroalprenolol] |  |  |  | Bmax (wild-type β2AR): 30.0 ± 0.5 pmol/mg; Kd (wild-type β2AR; read-out: Kd ± SE): 161 ± 12 pM; affinity for β2AR-T4L relative to wild-type β2AR (saturation binding) (β2AR-T4L [3]): wild-type affinity; Kd (β2AR-T4L [3]; saturation binding, β2AR-T4L, Sf9 membranes, read-out: Kd ± SE): 180 ± 16 pM
4 | CC(C)(C)NCC(O)c1ccc(O)c(CO)c1 (centres unmarked) [salbutamol] | larger responses | 449 ± 1 | 0.928 ± 0.009 | 
